Reference: US7713966B2, “Heterobicyclic metalloprotease inhibitors” (Alantos Pharmaceuticals Holding, Inc., priority 2006, dated 2010)

Key:
[1] = biological target: T1, catalytic domain of MMP-13 enzyme (Homo sapiens, UniProt P45452); test: Assay for determining MMP-13 inhibition (fluorescent substrate); assay type: biochemical; settings: read-out: MMP-13 Activity (IC50 MMP-13), Group
T1 construct: catalytic domain of MMP-13 enzyme (produced by Alantos or commercially available from Invitek (Berlin), Cat. # 30100812); purchased Invitek (Berlin) 30100812
Method: The typical assay for MMP-13 activity is carried out in assay buffer comprised of 50 mM Tris, pH 7.5, 150 mM NaCl, 5 mM CaCl2 and 0.05% Brij-35. Different concentrations of tested compounds are prepared in assay buffer in 50 μL aliquots. 10 μL of a 50 nM stock solution of catalytic domain of MMP-13 enzyme (produced by Alantos or commercially available from Invitek (Berlin), Cat. # 30100812) is added to the compound solution. The mixture of enzyme and compound in assay buffer is thoroughly mixed and incubated for 10 min at room temperature. Upon the completion of incubation, the assay is started by addition of 40 μl of a 12.5 μM stock solution of MMP-13 fluorescent substrate (Calbiochem, Cat. No. 444235). The time-dependent increase in fluorescence is measured at the 320 nm excitation and 390 nm emission by automatic plate multireader. The IC50 values are calculated from the initial reaction rates.

activated MMP-8 enzyme = biological target: T2, activated MMP-8 enzyme (Homo sapiens, UniProt P22894); test: Assay for determining MMP-8 inhibition (OmniMMP fluorescent substrate); assay type: biochemical; settings: read-out: MMP-8 Activity (IC50 MMP-8), Group
T2 construct: purchased Calbiochem 444229
T2 sequence (P22894 101-467): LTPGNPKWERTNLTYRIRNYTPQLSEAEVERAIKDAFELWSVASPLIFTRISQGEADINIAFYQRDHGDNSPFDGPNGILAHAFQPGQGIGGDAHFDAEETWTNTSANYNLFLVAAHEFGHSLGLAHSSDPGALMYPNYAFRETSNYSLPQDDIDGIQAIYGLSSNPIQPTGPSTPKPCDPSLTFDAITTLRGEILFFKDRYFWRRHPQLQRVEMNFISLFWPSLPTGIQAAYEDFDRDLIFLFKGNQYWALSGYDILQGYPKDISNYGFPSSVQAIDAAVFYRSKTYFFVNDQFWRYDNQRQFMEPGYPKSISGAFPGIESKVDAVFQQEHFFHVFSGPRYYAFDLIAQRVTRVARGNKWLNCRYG
Method: The typical assay for MMP-8 activity is carried out in assay buffer comprised of 50 mM Tris, pH 7.5, 150 mM NaCl, 5 mM CaCl2 and 0.05% Brij-35. Different concentrations of tested compounds are prepared in assay buffer in 50 μL aliquots. 10 μL of a 50 nM stock solution of activated MMP-8 enzyme (Calbiochem, Cat. No. 444229) is added to the compound solution. The mixture of enzyme and compound in assay buffer is thoroughly mixed and incubated for 10 min at 37° C. Upon the completion of incubation, the assay is started by addition of 40 μL of a 10 μM stock solution of OmniMMP fluorescent substrate (Biomol, Cat. No. P-126). The time-dependent increase in fluorescence is measured at the 320 nm excitation and 390 nm emission by an automatic plate multireader at 37° C. The IC50 values are calculated from the initial reaction rates.

Row | SMILES | IC50 [1] [nM] | IC50 (activated MMP-8 enzyme) [nM]
1 | Cc1cccc2nc(C(=O)NCc3ccc(F)c(CNc4c(N)c(=O)c4=O)c3)[nH]c(=O)c12 [2/17] |  | 250 to 20000
2 | O=C1COc2cc(CNC(=O)c3nc4ccc(Cl)cc4c(=O)[nH]3)ccc2N1 [2/27] | 100 to 20000 | 250 to 20000
3 | O=C1COc2ccc(CNC(=O)c3nc4cc(C(F)(F)F)ccc4c(=O)[nH]3)cc2N1 [2/43] | 100 to 20000 | < 250
4 | Cn1c(C(=O)NCc2ccc3c(c2)NC(=O)CO3)nc2ccccc2c1=O [2/50] | 100 to 20000 | 
5 | COc1cc2nc(C(=O)NCc3ccc4c(c3)NC(=O)CO4)[nH]c(=O)c2cc1OC [2/65] | 100 to 20000 | 
6 | Cc1nsc2nc(C(=O)NCc3ccc4c(c3)NC(=O)CO4)[nH]c(=O)c12 [2/136] | 100 to 20000 | 
7 | CCOC(=O)Cc1c([N+](=O)[O-])sc2nc(C(=O)NCc3ccc4c(c3)CN(c3c(N)c(=O)c3=O)CC4)[nH]c(=O)c12 [2/164] | 100 to 20000 | 
8 | O=C1COc2cc(CNC(=O)c3nc4ccccc4c(=O)[nH]3)ccc2N1 [2/205] | 100 to 20000 | 
9 | Cc1sc2nc(C(=O)NCc3ccc4c(c3)NC(=O)CO4)[nH]c(=O)c2c1C(=O)O [4/1] | 100 to 20000 | 
10 | Cc1c(C(=O)O)sc2nc(C(=O)NCc3ccc4c(c3)NC(=O)CO4)[nH]c(=O)c12 [4/2] | 100 to 20000 | 
11 | Cc1c(CCC(=O)O)sc2nc(C(=O)NCc3ccc4c(c3)NC(=O)CO4)[nH]c(=O)c12 [4/8] |  | < 250
12 | NC(=O)c1ccc2c(=O)[nH]c(C(=O)NCc3ccc4c(c3)NC(=O)CO4)nc2c1 [13/1] | 100 to 20000 | 
13 | O=C1COc2ccc(CNC(=O)c3nc4ccc(C(=O)Nc5ccccc5)cc4c(=O)[nH]3)cc2N1 [31/1] | 100 to 20000 | 

Next, values leading:

Row | IC50 [1] [nM] | IC50 (activated MMP-8 enzyme) [nM] | SMILES
14 | 100 to 20000 | 250 to 20000 | O=C(NCc1ccc2c(c1)OC(F)(F)O2)c1nc2ccccc2c(=O)[nH]1 [2/6]
15 | < 100 | 250 to 20000 | O=C(NCc1ccc2c(c1)CCO2)c1nc2ccccc2c(=O)[nH]1 [2/7]
16 | < 100 | 250 to 20000 | CCOC(=O)c1c(C)sc2nc(C(=O)NCc3ccc4c(c3)NC(=O)CO4)[nH]c(=O)c12 [2/22]
17 | < 100 | 250 to 20000 | CCOC(=O)c1sc2nc(C(=O)NCc3ccc4c(c3)NC(=O)CO4)[nH]c(=O)c2c1C [2/28]
18 | < 100 | 250 to 20000 | Cc1c(C(=O)Nc2ccccc2)sc2nc(C(=O)NCc3ccc4c(c3)NC(=O)CO4)[nH]c(=O)c12 [2/62]
19 | < 100 | < 250 | C=Cc1ccc2nc(C(=O)NCc3ccc4c(c3)NC(=O)CO4)[nH]c(=O)c2c1 [2/69]
20 | < 100 | < 250 | CCc1ccc2nc(C(=O)NCc3ccc4c(c3)NC(=O)CO4)[nH]c(=O)c2c1 [2/70]
21 | < 100 | 250 to 20000 | O=C1COc2ccc(CNC(=O)c3nc4scc(-c5ccccc5Cl)c4c(=O)[nH]3)cc2N1 [2/101]
22 | < 100 |  | Cn1ncc2c(=O)[nH]c(C(=O)NCc3ccc4c(c3)NC(=O)CO4)nc21 [2/111]
23 | < 100 | 250 to 20000 | O=C1COc2ccc(CNC(=O)c3nc4scc(-c5cccnc5)c4c(=O)[nH]3)cc2N1 [2/115]
24 | < 100 |  | O=C1COc2ccc(CNC(=O)c3nc4scc(-c5ccc(-c6ccccc6)cc5)c4c(=O)[nH]3)cc2N1 [2/138]
25 | < 100 | < 250 | O=C(Cc1csc2nc(C(=O)NCc3ccc4c(c3)NC(=O)CO4)[nH]c(=O)c12)NCc1ccc2c(c1)NC(=O)CO2 [2/149]
26 | < 100 | < 250 | CNC(=O)Cc1csc2nc(C(=O)NCc3ccc4c(c3)NC(=O)CO4)[nH]c(=O)c12 [2/157]
27 | < 100 |  | Cc1nc2c(=O)[nH]c(C(=O)NCc3ccc4c(c3)NC(=O)CO4)nc2s1 [2/179]
28 | < 100 |  | Cc1nc2c(=O)[nH]c(C(=O)NCc3ccc4c(c3)CN(c3c(N)c(=O)c3=O)CC4)nc2s1 [2/180]
29 | < 100 | < 250 | Cc1sc2nc(C(=O)NCc3ccc4c(c3)NC(=NO)CO4)[nH]c(=O)c2c1C [2/275]
30 | < 100 |  | Cc1sc2nc(C(=O)NCc3cc(Br)c4c(c3)NC(=O)CO4)[nH]c(=O)c2c1C [2/281]
31 | < 100 |  | Cc1csc(-c2csc3nc(C(=O)NCc4ccc5c(c4)NC(=O)CO5)[nH]c(=O)c23)n1 [2/379]
32 | < 100 | < 250 | O=C1COc2ccc(CNC(=O)c3nc4ccc(CNC(=O)C56C7C8C5C5C6C7C85C(=O)O)cc4c(=O)[nH]3)cc2N1 (centres unmarked) [4/3]
